“Also recorded” adds a separate entry of the source. Where two headings read alike, the source gives them in different places. Where a SMILES comes first, the peptide text is derived from it. [ ]: non-standard residue; d: D form. The star is where a group is joined. Nle = CCCC[C@H](N)C(=O)O; Cbz = O=C(OCc1ccccc1)*
Tests used:
APP [1] = assay: Western blot analysis of APP C-terminal fragments (C99, C83, C470, ~55/~85-kDa CTFs) in AC29 cells stably transfected with APP; type: cell-based, human; design: steady state levels of C99 / APP-CTF levels (C99, C83, C470) compared with ALLN results: dose or concentration left out as unconfirmed
Procedure: Wild-type (WT) and cholesterol mutant (AC29 and 25RA) CHO cell lines were grown in Dulbecco's Modified Eagle Medium (DMEM) and Nutrient Mixture F-12 Ham (Sigma-Aldrich, St. Louis, Mo.), respectively. Media were supplemented with 10% (v/v) FBS (Atlanta Biologicals, Norcross, Ga.), 1% (v/v) L-Glutamine-Penicillin-Streptomycin solution (Sigma-Aldrich), and 0.4% (v/v) G418 Sulfate (Calbiochem, La Jolla, Calif.) as selection marker for cells stably transfected with cDNA constructs expressing APP751 or APP(ES/AA), and hygromycin for […]-[…] in a […] TOPO expression vector (Invitrogen, Carlsbad, Calif.). Cells were cultured at 37° C. in a water-saturated air/CO2 atmosphere. The following antibodies against APP were used throughout this study: 22C11 (monoclonal, against N-terminus; Chemicon International, Temecula, Calif.); 369 (monoclonal, against C-terminus; generous gift from Dr. Sam Gandy, Farber Institute for Neuroscience, Thomas Jefferson University, Philadelphia, Pa.); C7 and C8 (against C-terminus; generous gift from Dr. Dennis J. Selkoe, Harvard Medical School, Boston, Mass.); 4G8 (monoclonal, against […]β; Endogen, Woburn, Mass.); 6E10 (monoclonal, against residues 1-17 of Aβ; Senetek, St. Louis, Mo.). Antibodies against calreticulin (ER marker), GM130 (Golgi marker), and EEA-1 (early endosomes) were obtained from StressGen Biotechnologies Corp. (Victoria BC, Canada) and Transduction Laboratories (Lexington, Ky.). Anti-V5 antibody was from Invitrogen (Carlsbad, Calif.). Additional materials used in this study include the γ-secretase inhibitor DAPT (generous gift from Dr. Rudolph E. Tanzi, Massachusetts General Hospital, Charlestown, Mass.), the β-secretase inhibitor Z-VLL-CHO (Calbiochem, La Jolla, Calif.), ALLN (Calbiochem), lactacystin (Sigma-Aldrich), ammonium chloride (Sigma-Aldrich), chloroquine (Sigma-Aldrich), methyl-(3-cyclodextrin (Sigma-Aldrich), and mevastatin (Sigma).

AC29 cells [2] = assay: Cholesterol determinations (intracellular FC and CE pools); type: cell-based; design: cholesterol levels: dose or concentration left out as unconfirmed; conditions: AC29 cells stably transfected with APP
Procedure: For the determinations of intracellular pools of FC and CE, cells were first incubated ad equilibrium (for 3 days) in the presence of [^14C]Acetic acid (57.0 mCi/mmol) (Amersham Life Science, Elk Grove, Ill.), then washed twice in PBS and extracted in chloroform/methanol (2:1; v/v). The chloroform phase was dried, resuspended again in chloroform, and applied with standards to a Silica Gel-G (EM Science, Gibbstown, N.J.) Thin Layer Chromatography (TLC). Plates were developed in hexane/ethyl ether/acetic acid (87:20:1, v/v) and visualized with […]. Spots were scraped and counted in a liquid scintillation counter.

AC29 cells [3] = assay: Cell viability by release of lactate-dehydrogenase (LDH) into the media; type: cell-based; conditions: mβ-CD for 24 hours
Procedure: To establish whether the generation of the 55- and 85-kDa APP-CTFs was affected by FC in the absence of changes in CEs, we depleted AC29 cells of cholesterol using a combination of methyl β-cyclodextrin (m#-CD), a sterol-binding molecule, and mevastatin, an HMG-CoA reductase inhibitor. In our studies, mβ-CD was used for 24 hours to allow for cellular cholesterol to reach equilibrium. Cell viability was not affected, as assessed by the release of the cytosolic enzyme lactate-dehydrogenase (LDH) into the media. […] However, it is important to note that normalized FC in AC29 cells only recovered 50% of the Aβ secreted by WT CHO cells (FIG. 2B), the other 50% still missing presumably due to the absence of CE synthesis in these cells. Both ˜55- and ˜85-kDa APP-CTFs were undetectable after successful normalization of FC (FIG. 2C).

APP [4] = target: APP (Homo sapiens, UniProt P05067); assay: In vitro assays of APP degradation by recombinant HtrA2; type: biochemical
Source text: We determined that HtrA2 could serve as a chaperone binding to APP that under cellular stress could switch from chaperone to a protease that degrades misfolded APP. AC29 cells have elevated free (membrane) cholesterol level that may cause ER stress. In AC29 cells, levels of mature form of HtrA2 were elevated in the ER and Golgi as compared to the parental CHO cells (FIG. 10). Furthermore, HtrA2 localized to the cell surface in AC29 cells but not in the parental CHO cells (FIG. 11). Also we determined that HtrA2 co-purified with APP from mammalian cells (FIG. 10) and also co-immunoprecipitated with APP. In in vitro assays, recombinant HtrA2 degraded APP.

APP (Homo sapiens, UniProt P05067), sequence (P05067 18-770): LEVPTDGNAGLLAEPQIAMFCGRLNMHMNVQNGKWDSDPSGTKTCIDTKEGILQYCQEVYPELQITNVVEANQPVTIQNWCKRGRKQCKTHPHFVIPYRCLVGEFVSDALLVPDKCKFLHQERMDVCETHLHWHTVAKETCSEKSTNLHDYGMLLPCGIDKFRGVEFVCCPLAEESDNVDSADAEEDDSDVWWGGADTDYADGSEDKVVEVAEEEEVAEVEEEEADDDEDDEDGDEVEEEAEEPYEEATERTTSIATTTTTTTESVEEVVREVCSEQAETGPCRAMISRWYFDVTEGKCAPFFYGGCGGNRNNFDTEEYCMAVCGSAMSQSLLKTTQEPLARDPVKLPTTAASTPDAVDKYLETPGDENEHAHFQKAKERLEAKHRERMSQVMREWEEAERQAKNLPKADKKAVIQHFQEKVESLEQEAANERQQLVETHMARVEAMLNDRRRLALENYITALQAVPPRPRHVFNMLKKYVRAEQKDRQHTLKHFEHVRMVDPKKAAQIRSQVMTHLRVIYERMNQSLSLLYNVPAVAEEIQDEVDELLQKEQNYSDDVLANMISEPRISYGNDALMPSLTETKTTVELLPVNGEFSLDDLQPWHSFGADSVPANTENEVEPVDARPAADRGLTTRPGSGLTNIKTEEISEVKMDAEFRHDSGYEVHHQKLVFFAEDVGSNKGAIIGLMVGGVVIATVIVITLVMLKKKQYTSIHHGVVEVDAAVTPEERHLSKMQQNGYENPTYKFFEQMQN

**Q.** For `CCCC[C@@H](C=O)NC(=O)[C@H](CC(C)C)NC(=O)[C@H](CC(C)C)NC(C)=O` [ALLN] (Ac-Leu-Leu-[Nle]-aldehyde), which “steady state levels of C99” value (APP [1]; alone, 24 hours) is on record?
**A.** increased

**Q.** For `C[C@H](NC(=O)Cc1cc(F)cc(F)c1)C(=O)N[C@H](C(=O)OC(C)(C)C)c1ccccc1` [DAPT], which C83 levels (APP [1]; 250 nM DAPT, antibody C7) is on record?
**A.** increased

**Q.** `CC[C@H](C)C(=O)O[C@H]1CCC=C2C=C[C@H](C)[C@H](CC[C@@H]3C[C@@H](O)CC(=O)O3)[C@H]21` [Mevastatin, mevastatin] was tested. Which cholesterol levels (AC29 cells [2]) did it give?
**A.** did not induce significant changes

**Q.** `CC(C)C[C@@H](C=O)NC(=O)[C@H](CC(C)C)NC(=O)[C@@H](NC(=O)OCc1ccccc1)C(C)C` [Z-VLL-CHO] (Cbz-Val-Leu-Leu-aldehyde) was tested. Which “increase in steady-state levels of C470” value (APP [1]; Z-VLL-CHO (0.5 mM) alone, 24 hours) did it give?
**A.** not evident

**Q.** `Cl.N` [ammonium chloride] was tested. Which “steady-state levels of C470” value (APP [1]; ammonium chloride (NH4Cl, 10 mM)) did it give?
**A.** no effect; also recorded: did not affect

**Q.** Which “steady-state levels of C470” value (APP [1]) does the source give for `CCN(CC)CCCC(C)Nc1ccnc2cc(Cl)ccc12` (stereo not shown) [chloroquine] here?
**A.** no effect; also recorded: did not affect

**Q.** Which “APP-CTF levels (C99, C83, C470) compared with ALLN results” value (APP [1]; lactacystin instead of ALLN, with or without Z-VLL-CHO, 24 hours) does the source give for `CC(=O)N[C@@H](CSC(=O)[C@]1([C@@H](O)C(C)C)NC(=O)[C@H](C)[C@@H]1O)C(=O)O` [lactacystin] here?
**A.** Very similar results

**Q.** Which results are given for methyl β-cyclodextrin [mβ-CD]?
**A.** Cell viability (LDH release into the media) (AC29 cells [3]): not affected; FC levels (AC29 cells [2]; mβ-CD (1 mM) alone): reduced, but did not normalize; also recorded: reduce but did not normalize

B1: recombinant HtrA2: serine protease containing a PDZ domain; protein with ζ cleavage activity (protein, UniProt O43464 134-458, looked up)
Serine protease HTRA2, …: AVPSPPPASPRSQYNFIADVVEKTAPAVVYIEILDRHPFLGREVPISNGSGFVVAADGLIVTNAHVVADRRRVRVRLLSGDTYEAVVTAVDPVADIATLRIQTKEPLPTLPLGRSADVRQGEFVVAMGSPFALQNTITSGIVSSAQRPARDLGLPQTNVEYIQTDAAIDFGNSGGPLVNLDGEVIGVNTMKVTAGISFAIPSDRLREFLHRGEKKNSSSGISGSQRRYIGVMMLTLSPSILAELQLREPSFPDVQHGVLIHKVILGSPAHRAGLRPGDVILAIGEQMVQNAEDVYEAVRTQSQLAVQIRRGRETLTLYVTPEVTE
**Q.** For B1, which “degradation of APP” value (APP [4]) is on record?
**A.** degraded APP

From US20050170437A1, “Methods and compositions relating to modulating amyloid precursor protein cleavage” (The General Hospital Corporation, priority 2003, published 2005)
